{"source": "patent US20250025500A1", "about": "“PHOSPHATASE INHIBITORS AS NK CELLS MODULATORS FOR THE TREATMENT OF CANCER” (Kanyr Pharma Inc., priority 2021, published 2025)", "key": {"NK-92 cells [1]": {"test_system": "NK-92 cells", "test": "qRT-PCR of lytic granule and IFNG mRNA in NK-92", "format": "cell-based, Human", "settings": "steady state", "protocol": "Total RNA was isolated with Qiagen™ RNeasy® Mini Kit™ without DNase I on column digestion, according to the manufactures protocol. Purified total RNA was resuspended in Dnase free, Rnase free, Protease free sterile water and quantified with NanoDrop™. A260/280 was above 2.0 (data not shown). RNA integrity was checked by gel electrophoresis. 500 ng of RNA was reverse transcribed into cDNA using the SuperScript™ III Reverse Transcriptase Kit™ (Thermo Fisher Scientific™), according to the manufacturer's protocol with random primer and Oligo(dT) 20 primer. Synthesized cDNA was treated with RNaseH. qRT-PCR was performed with BioRad™ CFX96 Real Time PCR Detection™ system using FastStart Essential DNA Green Master™ according to the manufacturer's instructions. TBP and B2M was used as housekeeping genes. Delta delta Cq method was used for analyzing relative expression of gene of interests with normalization to housekeeping genes."}, "NK-92 cells [2]": {"test_system": "NK-92 cells", "test": "Degranulation assay of NK-92 (CD107a, perforin, granzyme B)", "format": "cell-based, Human", "protocol": "NK-92 cells pre-treated with L598 (30 μM) or vehicle control were stimulated with K-562 tumor target cells [effector: target (E:T) at 1:1] or PMA/lonomycin (1 μg/mL each) or no-stimulation control with K-562 complete media, respectively. Anti-CD107a or LAMP-1 antibody (1:100, PE/Cy7 conjugated, clone H4A3, from BioLegend®) was added to cells at the start of degranulation assay. Golgi stop (containing Monensin, 1 μM) and Golgi plug (containing Brefeldin A, 4 μg/mL) were added to cells one hour after degranulation assay started and were kept until the end of the 6-hour-degranulation assay. Intracellular staining of GrB (1:40, PE conjugated, clone QA18A28, from BioLegend®) and PRF (1:40, FITC conjugated, clone B-D48, from BioLegend®) were performed with the Fixation/Permeabilization Solution Kit (BD® Biosciences) according to the manufacture's protocol. Cells were stained with fixable viability dye (1:2000) for 20 mins on ice and in dark, and blocked with FcBlock (1:20, diluted in 1× Perm/Wash buffer, Human truStain FcX from BioLegend®) for 5 mins at room temperature and in dark before intracellular staining. Cell gating and percentage of population quantification was based on no-stimulation control. For kinetics of degranulation assay, measurements were taken over three hours at 15 mins, 30 mins, 60 mins, 120 mins and 180 mins, with L598 (30 μM, three days) treated group and vehicle control group under the condition of tumor target cell K-562 stimulation (E: T at 1:1) or no stimulation. Intracellular cytolytic granule contents GrA, GrB and PRF were measured as mentioned previously."}, "[3]": {"settings": "PMA/ionomycin 1 μg/mL each, six hours, vs control"}, "[4]": {"settings": "three-hours cytolytic assay, K-562 stimulation"}}}
{"substance": "7-bromo-6-phosphono(difluoro-methyl)-3-napthalenonitrile [L598]", "values": [{"measurement": "mRNA expression of perforin, granzyme A, granzyme B and granzyme K", "setting": "NK-92 cells [1]; 30 μM three days", "value": "upregulated"}, {"measurement": "IFN-γ mRNA", "setting": "NK-92 cells [1]; 30 μM", "value": "upregulation"}, {"measurement": "percentage of degranulating NK-92 cells (surface CD107a and intracellular lytic granules)", "setting": "NK-92 cells [2]; 30 μM pre-treatment, K-562 stimulation six hours, vs control", "value": "smaller percentage"}, {"measurement": "dead tumor target K-562 cells in degranulation assay", "setting": "NK-92 cells [2]; K-562 stimulation E:T 1:1, vs control cells", "value": "more tumor target K-562 cells were found dead"}, {"measurement": "degranulated NK-92 cells (CD107a+, Perforin− or Granzyme B−) under PMA and ionomycin", "setting": "NK-92 cells [2]; [3]", "value": "less"}, {"measurement": "degranulating NK-92 cells under PMA and ionomycin", "setting": "NK-92 cells [2]; [3]", "value": "more"}, {"measurement": "percentage of CD107a−, Perforin+ or CD107a−, Granzyme B+ population", "setting": "NK-92 cells [2]; after six-hours K-562 stimulation, vs control", "value": "larger percentage"}, {"measurement": "time from which granzyme B is degranulated more rapidly", "setting": "NK-92 cells [2]; [4]", "value": 60, "unit": "min"}, {"measurement": "time from which perforin is degranulated more rapidly", "setting": "NK-92 cells [2]; [4]", "value": 30, "unit": "min"}]}
